Values quoted from earlier work as cited in patent US20240278494A1, “THREE-DIMENSIONAL ADDITIVE FABRICATION WITH SUPPORT FLUID” (GEORGIA TECH RESEARCH CORPORATION, priority 2021, published 2024).
Read-outs that look alike come from different tables or passages of the source.

How the values were obtained:
[1] = for ρ: Table 2, resin additives; for Density: Table 1, acrylate monomers
[2] = Table 2, resin additives
[3] = not given; remark: listed apart in the source

Molecule	Viscosity (Table 2, resin additives)	ρ [1]	γ (surface tension) [2]	Viscosity (Table 1, acrylate monomers)	Density [1]	Water solubility ([3]; Table 1, acrylate monomers)	Water solubility ([3]; Table 2, resin additives)
OCCCO [1,3-Propanediol]	52 cP	1.0597 g/mL	46.2 mN/m				
C=CC(=O)OCCCC [BA, Butyl Acrylate]	0.92 cP	0.9 g/mL	20 mN/m				
C1CCC2CCCCC2C1 (centres unmarked) [Decalin, Decahydronaphthalene]	1.788 cP	0.896 g/mL					
C=CC(=O)OCC(CC)CCCC (centres unmarked) [EHA, 2-Ethylhexyl acrylate]	1.7 cP	0.885 g/mL	26 mN/m				
C=CC(=O)OCCCCCCOC(=O)C=C [HDDA, 1,6-Hexanediol diacrylate]				9 cP	1.02 g/mL	100 µg/mL	
C=CC(=O)OC [MA, Methyl Acrylate]	0.6 cP	0.95 g/mL					50000 µg/mL
C=C(C)C(=O)OC [MMA, Methyl Methacrylate]	0.6 cP	0.94 g/mL	31.4 mN/m				
CCCCCCCC/C=C\CCCCCCCC(=O)O [OA, Oleic Acid]	27.64 cP	0.895 g/mL	31.92 mN/m				<100 µg/mL
COCC(C)OC(C)=O (centres unmarked) [PGMEA, Propylene glycol methyl ether acetate]	0.8 cP	0.962 g/mL	26.9 mN/m				19800 µg/mL
C=C(C)C(=O)OCCOCCOCCOC(=O)C(=C)C [TEGDMA, Triethylene glycol dimethacrylate]				50 cP	1.072 g/mL	2410 µg/mL	
CCCCOC(C)=O [n-Butyl Acetate]	1.1002 cP	0.8825 g/mL	25.3 mN/m				680 µg/mL
Dimethylbenzene [Xylene]	0.812 cP	0.865 g/mL	28 mN/m				<100 µg/mL
Urethane dimethacrylate [UDMA]				6.75 cP	1.129 g/mL		
